Source: patent publication EP0408294B1, “Use of an amylin antagonist for the manufacture of amedicament for the treatment of obesity and essential hypertension and related disorders” (AMYLIN PHARMACEUTICALS, INC., priority 1989, dated 1995)
Positions of bridges follow the written chain, without caps; N, C: chain ends. No end group written: not given here.

What was measured:
isolated soleus muscle = assay: amylin antagonist assay: incorporation of radiolabelled glucose into glycogen in isolated soleus muscle; type: cell-based, rats; conditions: 1000µU/mL insulin, 20nM amylin
Experimental: In a further experiment we have shown that the […] CGRP 8-37 also functions as a partial amylin antagonist. Insulin was obtained as Humulin-R, 100U/mL, recombinant human insulin (Eli Lilly, Indianapolis, IN). Amylin, obtained as rat amylin (Bachem, Torrance, CA) and 8-37 human CGRP (Bachem, Torrance CA) were also used. An antagonist assay was performed in vitro using the isolated soleus muscle from rats. It measured the rate of incorporation of radiolabelled glucose into muscle glycogen as follows: (1) under hormone-free conditions (zero insulin, zero amylin, zero hCGRP₈₋₃₇ [antagonist]); (2) under conditions of stimulation of glycogen formation with insulin (1000µU/mL insulin, zero amylin, zero antagonist); (3) under conditions where the near maximal stimulation of glycogen formation has been inhibited with amylin (1000µU/mL insulin, 20nM amylin, zero antagonist); and, (4) under conditions where the suppression of glycogen formation by amylin has been disinhibited by an antagonist to the amylin action (1000µU/mL insulin, 20nM amylin, range of concentrations of antagonist [0, 1nM, 10nM, 100nM, 300nM, 1µM, 10µM]) There were therefore […] (conditions 1,2,3 and […] of condition 4). […]

isolated adipocytes = assay: formation of CO₂ or triacyglycerol in isolated adipocytes; type: cell-based
Text: (§1) In muscles treated with amylin, there was no response to insulin at the concentration necessary for half-maximal stimulation in non amylin-treated muscles. The effects of amylin were seen even in the presence of very low concentrations of insulin. Amylin produced a 30 percent reduction in the basal rate of glycogen synthesis in the presence of a basal concentration (1 µU/ml) of insulin. In marked contrast, amylin had no effect on either the basal or the insulin-stimulated rates of formation of CO₂ or triacyglycerol in isolated adipocytes. The effect of amylin treatment in muscle could only be overcome by increasing the concentration of insulin to the supra-physiological level of 1000 uU/ml.
Amylin acts by reducing both basal and insulin-induced uptake of glucose into skeletal muscle, especially by reducing the rate of incorporation of glucose into glycogen, and also by reducing the rate of glucose uptake into muscle cells (Molina, M. et al., Science 1989; submitted). […] We have concluded that amylin causes the insulin-resistance in type 2 diabetes, probably in conjunction with CGRP and/or CGRP receptors.

normal rats = assay: intravenous amylin bolus in normal rats; type: in vivo
Experimental: Similar results have been obtained using amylin. We have also shown that amylin acutely produces diabetes (fasting hyperglycemia greater than 140 mg/dL) when administered intravenously. Eight normal rats were injected with a 100µg bolus of amylin (rat amylin, Bachem, Torrance, CA). An intravenous amylin bolus produced a profound hyperglycemia to diabetic levels within 15-30 minutes (usually around 200 mg/dL). This hyperglycemia persists for several hours. The hyperglycemia is partly accounted for by an increase in hepatic (endogenous) glucose output and partly by an increased impediment in peripheral glucose disposal. […] There is an increase in respiratory quotient (RQ) after amylin only when somatostatin is absent and insulin is allowed to increase in response to hyperglycemia. During somatostatin infusion (no endogenous insulin release), there is no change in RQ, indicating no change from lipid to carbohydrate fuel usage in response to amylin in the fasted animal.

red skeletal muscle = assay: glycogen synthesis in amylin-treated skeletal muscle in vitro; type: cell-based, rat; conditions: insulin at the concentration necessary for half-maximal stimulation in non amylin-treated muscles
Text: as §1
(§2) • Figure 1 indicates the effect of amylin on the insulin-stimulated fate of glucose uptake in isolated incubated skeletal muscles of the rat. • Figure 2a indicates the effect of a CGRP infusion on glucose uptake in an anaesthetised rat under conditions of hyperinsulinaemic, euglycaemic glucose clamp, in which insulin alone was initially infused, following by insulin and CGRP. Similar results have been obtained with an infusion of amylin. • Figure 2b indicates the effect of an infusion of CGRP in an anaesthetised rat under conditions of hyperinsulinaemic, euglycaemic clamp, in which insulin and CGRP were initially infused together, followed by cessation of the CGRP infusion. […]

anaesthetised rats = assay: hyperinsulinemic, euglycemic glucose clamp with CGRP infusion; type: in vivo, rat
Experimental: as §2, with “infusion. Similar results have been obtained with an infusion of amylin. • Figure 3 indicates the effect of CGRP on hepatic glucose output in anaesthetised rats, under conditions of hyperinsulinaemic, euglycaemic glucose clamp. Error bars give standard error of the mean. • Figure 4 indicates the effect of CGRP on insulin-stimulated glucose uptake in isolated BC3H-1 myocytes. • Figure 5 indicates the relationship between maximal insulin resistance, as measured by maximal insulin-stimulatable glucose disposal, and levels of serum CGRP-like immunoreactivity in the blood of a group of insulin-resistant type 2 diabetic human patients.” for “infusion.”

Substance: CGRP₈₋₃₇: 8-37 human CGRP (Bachem), sub-peptide of CGRP, partial amylin antagonist
- increment in the rate of glycogen synthesis from the amylin-inhibited level (isolated soleus muscle; antagonist 1nM to 10µM, maximal increment): about 115%
- EC50 (isolated soleus muscle; 4-parameter logistic fit, read-out: EC₅₀ for disinhibition (half maximal concentration)): 1.2 nM

Substance: amylin: 37-amino acid peptide hormone from islet amyloid, Cys 2-7 disulfide bridge, amidated; rat amylin from Bachem used in tests (KCNTATCATQRLANFLVRSSNNLGPVLPPTNVGSNTY-NH2; disulfide 2-7; UniProt P12969 38-74, looked up)
- effect on basal or insulin-stimulated rates of formation of CO₂ or triacyglycerol (isolated adipocytes): no effect
- persistence of hyperglycemia (normal rats; 100µg intravenous bolus of rat amylin): several hours
- hyperglycemia (glucose level reached) (normal rats; 100µg intravenous bolus of rat amylin, eight normal rats): around 200 mg/dL
- respiratory quotient (RQ) (normal rats; after amylin, somatostatin absent, insulin allowed to increase in response to hyperglycemia): increase
- plasma lactate (normal rats; after intravenous amylin bolus): transient increase
- respiratory quotient (RQ) (normal rats; during somatostatin infusion (no endogenous insulin release), fasted animal): no change
- response to insulin in muscles treated with amylin (red skeletal muscle): no response

Substance: CGRP
- glucose infusion rate, new steady state (anaesthetised rats; Figure 2A protocol, CGRP 0.02 ug/kg/min from 80-150 minutes during constant insulin infusion 1.8 mU/kg/min): 18.0 ± 0.1 mg/kg/min
- rise of glucose disposal rate (GDR) over basal (anaesthetised rats; Figure 2B protocol, 3H-glucose, last 20 mins of period, CGRP = CGRP plus insulin, insulin = insulin alone, basal GDR 11.2 ± 0.7): 7.4 ± 1.6 mg/kg/min
